This is an account of results in patent publication US20040259866A1, “Calcium channel blockers comprising two benzhydril moieties” (priority 1998, published 2004).

pIC50: −log10 of the molar value. Read-outs that look alike come from different tables or passages of the source.

Assay [1] concerns the target T1, rat α1B+α2b+β1b channels (N-type channels) (Rattus norvegicus, UniProt Q02294).
T1 construct: expressed in transfected cells
Kind of assay: Block of α1B N-type channels, whole cell patch recordings (Example 6). The format is cell-based. The following applies: HEK 293, 5 mM barium as charge carrier. The method, then: Antagonist activity was measured using whole cell patch recordings on human embryonic kidney cells either stably or transiently expressing rat α1B+α2b+β1b channels (N-type channels) with 5 mM barium as a charge carrier.
For transient expression, host cells, such as human embryonic kidney cells, HEK 293 (ATCC# CRL 1573) were grown in standard DMEM medium supplemented with 2 mM glutamine and 10% fetal bovine serum. HEK 293 cells were transfected by a standard calcium-phosphate-DNA coprecipitation method using the rat α1B+β1b+α2δ N-type calcium channel subunits in a vertebrate expression vector (for example, see Current Protocols in Molecular Biology).
After an incubation period of from 24 to 72 hrs the culture medium was removed and replaced with external recording solution (see below). Whole cell patch clamp experiments were performed using an Axopatch 200B amplifier (Axon Instruments, Burlingame, Calif.) linked to an IBM compatible personal computer equipped with pCLAMP software. Borosilicate glass patch pipettes (Sutter Instrument Co., Novato, Calif.) were polished (Microforge, Narishige, Japan) to a resistance of about 4 MΩ when filled with cesium methanesulfonate internal solution (composition in MM: 109 CsCH3SO4, 4 MgCl2, 9 EGTA, 9 HEPES, pH 7.2). Cells were bathed in 5 mM Ba^++ (in mM: 5 BaCl2, 1 MgCl2, 10 HEPES, 40 tetraethylammonium chloride, 10 glucose, 87.5 CsCl pH 7.2). […] Drugs were perfused directly into the vicinity of the cells using a microperfusion system.
Normalized dose-response curves were fit (Sigmaplot 4.0, SPSS Inc., Chicago, Ill.) by the Hill equation to determine IC50 values. Steady-state inactivation curves were plotted as the normalized test pulse amplitude following 5 s inactivating prepulses at +10 mV increments. Inactivation curves were fit (Sigmaplot 4.0) with the Boltzman equation, Ipeak (normalized)=1/(1+exp((V-Vh)z/25.6)), where V and Vh are the conditioning and half inactivation potentials, respectively, and z is the slope factor.
Using the procedure set forth above, various compounds of the invention were tested for their ability to block N-type calcium channels.

Assay [2] deals with T2, human α1G subunits (T-type channels) (Homo sapiens, UniProt O43497).
T2 construct: expressed in transfected cells
Kind of assay: Block of α1G T-type channels, patch clamp in HEK cell lines (Example 8). It counts as cell-based. The method, then:
Standard patch-clamp techniques were employed to identify blockers of T-type currents. Briefly, previously described HEK cell lines stably expressing human α1G subunits were used for all the recordings (passage #: 4-20, 37° C., 5% CO2). To obtain T-type currents, plastic dishes containing semi-confluent cells were positioned on the stage of a ZEISS AXIOVERT S100 microscope after replacing the culture medium with external solution (see below). Whole-cell patches were obtained using pipettes (borosilicate glass with filament, O.D.: 1.5 mm, I.D.: 0.86 mm, 10 cm length), fabricated on a SUTTER P-97 puller with resistance values of ˜5 MΩ (see below for internal medium).
In the non-inactivating protocol, the holding potential is set at −110 mV and with a pre-pulse at −100 mV for 1 second prior to the test pulse at −40 mV for 50 ms; in the inactivation protocol, the pre-pulse is at approximately −85 mV for 1 second, which inactivates about 15% of the T-type channels, as shown below. [formula]
Test compounds were dissolved in external solution, 0.1-0.01% DMSO. After ˜10 min rest, they were applied by gravity close to the cell using a WPI microfil tubing. The “non-inactivated” pre-pulse was used to examine the resting block of a compound. The “inactivated” protocol was employed to study voltage-dependent block, but the initial data shown below were mainly obtained using the non-inactivated protocol only. IC50 values are shown for various compounds of the invention in Table 5.
(In general: Patch clamp records ionic current or voltage across a cell membrane.)

Setting [3] is: 0.067 Hz, read-out: Block of α1B N-type Channels IC50, 0.067 Hz.
Setting [4] is: 0.2 Hz, read-out: Block of α1B N-type Channels IC50, 0.2 Hz.
Setting [5] is: 100 mV (non-inactivating protocol), read-out: Block of α1G T-type Channels IC50, 100 mV.
[6] abbreviates: 100 mV (non-inactivating protocol).
[7] abbreviates: 80 mV (inactivation protocol), read-out: Block of α1G T-type Channels IC50, 80 mV.

T2 sequence (O43497 whole entry): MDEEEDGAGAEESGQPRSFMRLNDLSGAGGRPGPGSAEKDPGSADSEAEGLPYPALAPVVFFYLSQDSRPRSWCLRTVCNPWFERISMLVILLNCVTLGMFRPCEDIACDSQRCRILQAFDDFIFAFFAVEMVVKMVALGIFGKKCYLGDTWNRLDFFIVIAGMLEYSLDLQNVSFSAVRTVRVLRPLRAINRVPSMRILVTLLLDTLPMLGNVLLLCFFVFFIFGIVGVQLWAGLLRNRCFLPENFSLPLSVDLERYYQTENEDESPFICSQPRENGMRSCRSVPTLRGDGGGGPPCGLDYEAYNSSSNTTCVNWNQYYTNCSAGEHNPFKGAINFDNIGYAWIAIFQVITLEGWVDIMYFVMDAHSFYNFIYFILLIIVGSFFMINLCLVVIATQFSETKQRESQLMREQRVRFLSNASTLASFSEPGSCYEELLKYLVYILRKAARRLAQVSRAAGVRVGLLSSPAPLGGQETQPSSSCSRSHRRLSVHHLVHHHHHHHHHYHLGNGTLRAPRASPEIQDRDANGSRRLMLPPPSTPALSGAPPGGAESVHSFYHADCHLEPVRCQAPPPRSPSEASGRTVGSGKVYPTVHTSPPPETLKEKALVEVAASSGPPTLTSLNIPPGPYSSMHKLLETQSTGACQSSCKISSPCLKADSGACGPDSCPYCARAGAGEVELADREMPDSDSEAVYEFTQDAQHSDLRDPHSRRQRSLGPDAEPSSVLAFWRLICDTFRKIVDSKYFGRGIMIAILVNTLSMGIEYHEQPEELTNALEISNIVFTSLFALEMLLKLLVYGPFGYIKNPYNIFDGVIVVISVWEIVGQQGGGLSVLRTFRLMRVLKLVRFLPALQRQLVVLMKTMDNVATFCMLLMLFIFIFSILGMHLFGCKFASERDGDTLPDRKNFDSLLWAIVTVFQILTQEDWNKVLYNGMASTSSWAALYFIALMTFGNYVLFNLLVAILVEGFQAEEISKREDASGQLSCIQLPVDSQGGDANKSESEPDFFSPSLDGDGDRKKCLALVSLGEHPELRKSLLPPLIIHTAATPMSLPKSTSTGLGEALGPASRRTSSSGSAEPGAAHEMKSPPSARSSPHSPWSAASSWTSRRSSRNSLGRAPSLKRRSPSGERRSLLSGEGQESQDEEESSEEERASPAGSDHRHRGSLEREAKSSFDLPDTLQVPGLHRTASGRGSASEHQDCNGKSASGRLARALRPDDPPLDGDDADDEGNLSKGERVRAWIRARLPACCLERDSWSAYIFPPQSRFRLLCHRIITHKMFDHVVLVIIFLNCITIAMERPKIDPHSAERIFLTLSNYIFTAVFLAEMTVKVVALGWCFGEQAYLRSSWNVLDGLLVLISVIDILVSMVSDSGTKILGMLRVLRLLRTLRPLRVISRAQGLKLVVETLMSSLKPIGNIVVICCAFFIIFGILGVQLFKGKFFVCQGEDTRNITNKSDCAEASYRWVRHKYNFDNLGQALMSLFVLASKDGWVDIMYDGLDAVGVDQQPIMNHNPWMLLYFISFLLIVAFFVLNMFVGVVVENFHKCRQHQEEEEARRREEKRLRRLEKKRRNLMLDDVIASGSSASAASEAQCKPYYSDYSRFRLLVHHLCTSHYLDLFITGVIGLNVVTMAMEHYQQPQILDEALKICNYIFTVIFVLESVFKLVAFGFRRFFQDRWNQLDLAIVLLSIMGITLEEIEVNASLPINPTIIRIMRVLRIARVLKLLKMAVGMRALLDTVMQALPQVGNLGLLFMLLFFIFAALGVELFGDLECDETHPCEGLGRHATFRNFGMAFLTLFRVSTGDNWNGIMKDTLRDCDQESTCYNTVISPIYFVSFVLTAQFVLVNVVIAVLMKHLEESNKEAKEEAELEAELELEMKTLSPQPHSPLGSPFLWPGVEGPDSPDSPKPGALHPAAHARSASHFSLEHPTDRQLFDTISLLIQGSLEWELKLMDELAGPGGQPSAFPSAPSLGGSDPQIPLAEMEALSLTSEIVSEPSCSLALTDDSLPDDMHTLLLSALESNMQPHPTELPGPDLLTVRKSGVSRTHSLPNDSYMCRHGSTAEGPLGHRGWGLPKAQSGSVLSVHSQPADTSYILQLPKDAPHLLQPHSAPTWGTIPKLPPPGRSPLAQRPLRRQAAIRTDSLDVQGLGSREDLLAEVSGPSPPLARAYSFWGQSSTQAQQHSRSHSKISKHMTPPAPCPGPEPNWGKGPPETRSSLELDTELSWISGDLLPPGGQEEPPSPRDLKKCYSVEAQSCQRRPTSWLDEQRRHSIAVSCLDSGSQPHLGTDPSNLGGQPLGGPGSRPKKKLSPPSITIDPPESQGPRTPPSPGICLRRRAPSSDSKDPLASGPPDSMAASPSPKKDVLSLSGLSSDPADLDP
T1 sequence (Q02294 whole entry): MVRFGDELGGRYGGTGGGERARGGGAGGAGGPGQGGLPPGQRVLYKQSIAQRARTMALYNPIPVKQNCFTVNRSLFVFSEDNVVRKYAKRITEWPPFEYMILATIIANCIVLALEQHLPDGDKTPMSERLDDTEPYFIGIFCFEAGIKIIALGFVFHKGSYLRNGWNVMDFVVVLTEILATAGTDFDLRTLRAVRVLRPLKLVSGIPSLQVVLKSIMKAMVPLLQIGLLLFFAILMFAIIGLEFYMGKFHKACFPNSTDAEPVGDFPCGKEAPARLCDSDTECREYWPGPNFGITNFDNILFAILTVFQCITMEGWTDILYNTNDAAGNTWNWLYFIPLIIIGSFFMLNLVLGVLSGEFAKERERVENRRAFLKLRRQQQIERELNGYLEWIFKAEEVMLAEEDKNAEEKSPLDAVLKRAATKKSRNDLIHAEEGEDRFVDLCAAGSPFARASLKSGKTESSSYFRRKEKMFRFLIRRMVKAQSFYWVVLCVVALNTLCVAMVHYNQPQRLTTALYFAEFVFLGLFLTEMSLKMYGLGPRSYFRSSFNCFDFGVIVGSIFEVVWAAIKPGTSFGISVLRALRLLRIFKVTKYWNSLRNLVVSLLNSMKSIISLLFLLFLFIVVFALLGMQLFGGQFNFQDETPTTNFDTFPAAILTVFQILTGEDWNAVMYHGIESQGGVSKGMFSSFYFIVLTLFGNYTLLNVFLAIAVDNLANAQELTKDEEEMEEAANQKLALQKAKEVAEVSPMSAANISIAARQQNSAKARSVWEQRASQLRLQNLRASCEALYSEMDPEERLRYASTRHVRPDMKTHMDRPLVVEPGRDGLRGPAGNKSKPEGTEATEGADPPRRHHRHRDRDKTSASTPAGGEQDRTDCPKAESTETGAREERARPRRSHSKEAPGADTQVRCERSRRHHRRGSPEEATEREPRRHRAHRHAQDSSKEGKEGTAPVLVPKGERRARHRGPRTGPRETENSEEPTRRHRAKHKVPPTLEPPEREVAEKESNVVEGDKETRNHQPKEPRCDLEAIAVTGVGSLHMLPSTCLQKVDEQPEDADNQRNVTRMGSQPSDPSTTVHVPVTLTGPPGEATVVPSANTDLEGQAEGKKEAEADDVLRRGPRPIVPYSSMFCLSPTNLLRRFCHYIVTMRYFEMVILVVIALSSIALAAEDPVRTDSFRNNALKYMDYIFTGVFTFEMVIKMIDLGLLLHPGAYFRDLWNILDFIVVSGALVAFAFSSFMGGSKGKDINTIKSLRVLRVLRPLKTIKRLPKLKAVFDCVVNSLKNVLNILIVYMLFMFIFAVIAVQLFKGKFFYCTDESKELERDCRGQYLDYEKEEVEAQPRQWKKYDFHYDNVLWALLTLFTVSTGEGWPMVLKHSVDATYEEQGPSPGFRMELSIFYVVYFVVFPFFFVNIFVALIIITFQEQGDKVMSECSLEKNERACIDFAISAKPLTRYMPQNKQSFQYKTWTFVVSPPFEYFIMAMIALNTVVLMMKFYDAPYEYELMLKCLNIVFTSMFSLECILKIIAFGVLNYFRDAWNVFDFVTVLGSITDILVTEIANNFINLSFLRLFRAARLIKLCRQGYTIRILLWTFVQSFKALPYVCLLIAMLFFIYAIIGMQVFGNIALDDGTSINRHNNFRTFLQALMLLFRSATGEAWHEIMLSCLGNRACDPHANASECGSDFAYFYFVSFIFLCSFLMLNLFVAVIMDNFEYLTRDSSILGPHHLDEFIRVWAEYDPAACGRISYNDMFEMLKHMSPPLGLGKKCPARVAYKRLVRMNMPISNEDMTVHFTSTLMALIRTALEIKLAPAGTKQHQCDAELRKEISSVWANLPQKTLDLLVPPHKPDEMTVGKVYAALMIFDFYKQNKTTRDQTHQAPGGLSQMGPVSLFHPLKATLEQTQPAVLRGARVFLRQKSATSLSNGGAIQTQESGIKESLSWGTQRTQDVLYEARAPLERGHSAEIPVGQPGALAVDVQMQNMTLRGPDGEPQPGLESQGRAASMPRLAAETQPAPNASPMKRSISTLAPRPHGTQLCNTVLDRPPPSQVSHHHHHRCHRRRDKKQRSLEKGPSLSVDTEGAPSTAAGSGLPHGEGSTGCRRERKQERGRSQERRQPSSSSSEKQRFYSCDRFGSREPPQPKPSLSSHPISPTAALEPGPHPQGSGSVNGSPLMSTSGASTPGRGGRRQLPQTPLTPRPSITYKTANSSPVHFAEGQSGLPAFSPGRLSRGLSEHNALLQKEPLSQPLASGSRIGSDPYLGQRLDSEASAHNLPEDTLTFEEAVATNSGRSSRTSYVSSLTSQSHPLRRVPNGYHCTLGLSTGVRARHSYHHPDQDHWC

In the case of `O=C(CC(c1ccccc1)c1ccccc1)N1CCN(C(c2ccccc2)c2cc(Cl)cc(Cl)c2)CC1` (centres unmarked) [Compound P9], the negative logarithm of the IC50 (pIC50) (as a rule, the negative decadic logarithm of the IC50, by convention in mol/L) in assay [1] (setting [3]) was 6.64; in assay [1] (setting [4]), 6.77; in assay [2] (setting [5]), under 6.00.
In the case of `O=C(CC(c1ccccc1)c1ccccc1)N1CCN(C(c2ccccc2)c2cc(C(F)(F)F)cc(C(F)(F)F)c2)CC1` (centres unmarked) [Compound P10], the pIC50 was 6.26 in assay [1] (setting [3]) and 6.35 in assay [1] (setting [4]).
In the same order, the values of `CC(C)(C)c1ccc(C(c2ccccc2)N2CCN(C(=O)CC(c3ccccc3)c3ccccc3)CC2)cc1` (centres unmarked) [Compound P11] are 6.43 and 6.72.
Consider `O=C(CC(c1ccccc1)c1ccccc1)N1CCN(C(c2ccccc2)c2ccccc2OC(F)F)CC1` (centres unmarked) [Compound P12], for which the pIC50 in assay [1] (setting [3]) was 6.47; in assay [1] (setting [4]) it was 6.72.
Turning to `O=C(CC(c1ccccc1)c1ccccc1)N1CCN(C(c2ccccc2)c2c(Cl)cccc2Cl)CC1` (centres unmarked) [Compound P13], the pIC50 is 6.52 in assay [1] (setting [3]), 6.68 in assay [1] (setting [4]) and over 6.00 in assay [2] (setting [5]).
For the compound `COc1cc(OC)cc(C(c2ccccc2)N2CCN(C(=O)CC(c3ccccc3)c3ccccc3)CC2)c1` (centres unmarked) [Compound P14], the pIC50 is 6.49 in assay [1] (setting [3]) and 6.68 in assay [1] (setting [4]).
For `O=C(CC(c1ccccc1)c1ccccc1)N1CCN(C(c2ccccc2)c2cccc(Cl)c2Cl)CC1` (centres unmarked) [Compound P15], the negative-log IC50 (pIC50) is 6.46 in assay [1] (setting [3]), 6.66 in assay [1] (setting [4]) and 7.20 in assay [2] (setting [5]).
On to `O=C(CC(c1ccccc1)c1ccccc1)N1CCN(C2c3ccccc3Oc3ccccc32)CC1` [Compound P16], for which the negative-log IC50 (pIC50) is 6.54 in assay [1] (setting [3]) and 6.66 in assay [1] (setting [4]).
In the case of `O=C(CC(c1ccccc1)c1ccccc1)N1CCN(C(c2ccccc2)c2ccc(OCc3ccccc3)cc2)CC1` (centres unmarked) [Compound P17], the pIC50 in assay [1] (setting [3]) is 6.54; in assay [1] (setting [4]) it was 6.63. In addition, the “Block of α1G T-type Channels IC50, 100 mV” value in assay [2] (setting [6]) is “No effect”.
Regarding `COc1ccc(C(c2ccc(OC)cc2)N2CCN(C(=O)CC(c3ccccc3)c3ccccc3)CC2)cc1` [Compound P19], the pIC50 in assay [1] (setting [3]) is 6.44; in assay [1] (setting [4]), 6.60; in assay [2] (setting [5]), 6.13.
On to `COc1ccc(C(c2ccccc2)N2CCN(C(=O)CC(c3ccccc3)c3ccccc3)CC2)cc1` (centres unmarked) [Compound P20], for which the negative-log IC50 (pIC50) in assay [1] (setting [3]) was 6.49; in assay [1] (setting [4]), 6.60.
In the case of `COc1cc(C(c2ccccc2)N2CCN(C(=O)CC(c3ccccc3)c3ccccc3)CC2)cc(OC)c1O` (centres unmarked) [Compound P21], the pIC50 in assay [1] (setting [3]) is 6.36; in assay [1] (setting [4]) it was 6.60.
The matching figures for `O=C(CC(c1ccccc1)c1ccccc1)N1CCN(C(c2ccccc2)c2ccccc2C(F)(F)F)CC1` (centres unmarked) [Compound P22]: 6.27 and 6.52.
In the same order, the values of `Cc1ccc(C(c2ccccc2)N2CCN(C(=O)CC(c3ccccc3)c3ccccc3)CC2)cc1` (centres unmarked) [Compound P23] are 6.31 and 6.51.
On to `O=C(CC(c1ccccc1)c1ccccc1)N1CCN(C(c2ccccc2)c2ccc(F)cc2)CC1` (centres unmarked) [Compound P24], for which the pIC50 is 6.22 in assay [1] (setting [3]) and 6.42 in assay [1] (setting [4]).
The matching figures for `COc1cc(C(c2ccccc2)N2CCN(C(=O)CC(c3ccccc3)c3ccccc3)CC2)cc(OC)c1OC` (centres unmarked) [Compound P25]: 5.96 and 6.29.
For the compound `COc1ccc(C(c2ccc3c(c2)OCO3)N2CCN(C(=O)CC(c3ccccc3)c3ccccc3)CC2)cc1` (centres unmarked) [Compound P26], the pIC50 is 6.15 in assay [1] (setting [3]) and 6.27 in assay [1] (setting [4]).
The matching figures for `O=C(CC(c1ccccc1)c1ccccc1)N1CCN(C2c3ccccc3S(=O)(=O)c3ccccc32)CC1` [Compound P27]: 6.07 and 6.26.
As to `O=C(CC(c1ccccc1)c1ccccc1)N1CCN(C(c2ccccc2)c2ccc(Cl)c(Cl)c2)CC1` (centres unmarked) [Compound P30], the pIC50 in assay [1] (setting [3]), in assay [1] (setting [4]) and in assay [2] (setting [5]) was under 6.00 throughout.
As to `O=C(CC(c1ccccc1)c1ccccc1)N1CCN(C2c3ccccc3-c3ccccc32)CC1` [Compound P31], in assay [2] (setting [5]), the negative logarithm of the IC50 (pIC50) is 6.43.
For `O=C(CC1c2ccccc2-c2ccccc21)N1CCN(C(c2ccccc2)c2ccccc2)CC1` [Compound P33], in assay [2] (setting [5]), the pIC50 is 6.39.
For the compound `O=C(CC(c1ccccc1)c1ccccc1)N1CCN(C(c2ccccc2)c2ccccc2)C(=O)C1` [Compound P34, 1-Benzhydryl-4-(3,3-diphenyl-propionyl)-piperazin-2-one], the results for the pIC50 in assay [1] (setting [3]) and in assay [1] (setting [4]) were 6.13 and 6.17, respectively.
For the compound `CC1CN(C(c2ccccc2)c2ccccc2)CCN1C(=O)CC(c1ccccc1)c1ccccc1` (centres unmarked) [Compound P37], the pIC50 in assay [1] (setting [3]) is 6.79; in assay [1] (setting [4]) it was 7.62; in assay [2] (setting [7]) it was 6.32; in assay [2] (setting [5]), 6.00.
The matching figures for `O=C(O)C1CN(C(c2ccccc2)c2ccccc2)CCN1C(=O)CC1c2ccccc2-c2ccccc21` (centres unmarked) [Compound P38]: 6.70, 6.80, 6.74 and 6.16.
Regarding `CCOC(=O)C1CN(C(c2ccccc2)c2ccccc2)CCN1C(=O)CC1c2ccccc2-c2ccccc21` (centres unmarked) [Compound P39], the pIC50 is 6.62 in assay [1] (setting [3]), 6.72 in assay [1] (setting [4]), 6.11 in assay [2] (setting [7]) and 5.66 in assay [2] (setting [5]).
Take `CCOC(=O)C1CN(C(c2ccccc2)c2ccccc2)CCN1C(=O)CC(c1ccccc1)c1ccccc1` (centres unmarked) [Compound P41]: the pIC50 is 6.38 in assay [1] (setting [3]), 6.41 in assay [1] (setting [4]), 6.44 in assay [2] (setting [7]) and 6.00 in assay [2] (setting [5]).
Regarding `O=C(O)C1CN(C(c2ccccc2)c2ccccc2)CCN1C(=O)CC(c1ccccc1)c1ccccc1` (centres unmarked) [Compound P42], the pIC50 in assay [1] (setting [3]) is 5.72; in assay [1] (setting [4]) it was 5.83; in assay [2] (setting [7]) it was 5.74. The “Block of α1G T-type Channels IC50, 100 mV” value in assay [2] (setting [6]) is given as “no effect”.
`CCOC(=O)C1CN(C(c2ccccc2)c2ccccc2)CCN1C(=O)CC(c1ccccc1)c1ccccc1` (centres unmarked) [Compound P43]: the pIC50 in assay [1] (setting [3]) is 6.78; in assay [1] (setting [4]), 7.08; in assay [2] (setting [7]), 6.55; in assay [2] (setting [5]), 5.62.
As for `N#CC1CN(C(c2ccccc2)c2ccccc2)CCN1C(=O)CC(c1ccccc1)c1ccccc1` (centres unmarked) [Compound P45], the pIC50 in assay [1] (setting [3]) is 6.64; in assay [1] (setting [4]), 6.66; in assay [2] (setting [7]), 6.08; in assay [2] (setting [5]), 5.00.
`O=C(CC(c1ccccc1)c1ccccc1)N1CCN(C(c2ccccc2)c2ccc(O)cc2)CC1` (centres unmarked) [Compound P49]: the negative logarithm of the IC50 (pIC50) in assay [1] (setting [3]) is 6.47; in assay [1] (setting [4]), 6.49; in assay [2] (setting [7]) it was 6.08; in assay [2] (setting [5]) it was 5.57.
With `O=C(CC(c1ccccc1)c1ccccc1)N1CCN(C(c2ccccc2)c2cc(C(F)(F)F)cc(C(F)(F)F)c2)CC1` (centres unmarked) [P10 (HC1)], the pIC50 in assay [1] (setting [3]) is 6.52; in assay [1] (setting [4]), 6.72.
The matching figures for `O=C(CC(c1ccccc1)c1ccccc1)N1CCN(C(c2ccccc2)c2ccc(Cl)cc2Cl)CC1` (centres unmarked) [P29 (HC1)]: under 6.00 and under 6.00.
In the same order, the values of `O=C(CC(c1ccccc1)c1ccccc1)N1CCN(C2c3ccccc3CCc3ccccc32)CC1` [P32 (HC1)] are under 6.00 and 6.08.
